Reference: paper PMC6901289 (Journal of medicinal chemistry, 2019)
Entries after “also recorded” stand apart in the source; their conditions may differ.

Experiments:
[1] = test system: p53 acetylation in HCT116 cells; assay: p53 K382 acetylation by western blot; details: for acetyl p53 (K382) levels: HCT116, 25 μM inhibitor with 400 nM TSA, 6 hours; for dose dependence of acetyl p53 levels: HCT116, 10–50 μM inhibitor with Trichostatin A
[2] = test system: α-tubulin acetylation in HCT116 cells; assay: α-tubulin acetylation by immunofluorescence; type: cell-based, human; details: six hours
SIRT1 = biological target: T1, SIRT1 (Homo sapiens, UniProt Q96EB6); assay: Enzyme IC50 assay, acetyl H3K9 peptide, liquid chromatography; type: biochemical; details: in vitro
T1 sequence (Q96EB6 1-747): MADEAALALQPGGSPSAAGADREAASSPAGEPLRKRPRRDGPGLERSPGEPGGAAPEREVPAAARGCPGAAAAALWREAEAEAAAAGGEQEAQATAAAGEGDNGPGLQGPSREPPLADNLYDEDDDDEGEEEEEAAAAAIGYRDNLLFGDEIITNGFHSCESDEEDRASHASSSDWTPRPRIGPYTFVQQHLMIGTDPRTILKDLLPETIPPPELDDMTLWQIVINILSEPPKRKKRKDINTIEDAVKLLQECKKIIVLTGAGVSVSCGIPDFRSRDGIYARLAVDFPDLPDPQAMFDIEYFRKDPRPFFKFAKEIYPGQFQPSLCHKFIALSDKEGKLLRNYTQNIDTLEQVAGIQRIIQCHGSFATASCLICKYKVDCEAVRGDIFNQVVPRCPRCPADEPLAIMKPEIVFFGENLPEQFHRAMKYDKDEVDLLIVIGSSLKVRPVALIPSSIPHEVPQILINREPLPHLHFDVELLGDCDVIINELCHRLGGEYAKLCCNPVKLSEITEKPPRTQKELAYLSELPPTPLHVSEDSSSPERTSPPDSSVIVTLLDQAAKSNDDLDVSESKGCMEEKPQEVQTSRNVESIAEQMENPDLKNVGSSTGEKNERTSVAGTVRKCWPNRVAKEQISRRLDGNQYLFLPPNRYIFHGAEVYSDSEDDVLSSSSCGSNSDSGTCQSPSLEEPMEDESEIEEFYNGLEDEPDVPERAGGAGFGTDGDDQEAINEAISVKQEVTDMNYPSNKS

SIRT2 [3] = biological target: T2, SIRT2 (Homo sapiens, UniProt Q8IXJ6); assay: as above; type: biochemical; details: relative selectivity for SIRT2 over SIRT1, Table 1
T2 sequence (Q8IXJ6 1-389): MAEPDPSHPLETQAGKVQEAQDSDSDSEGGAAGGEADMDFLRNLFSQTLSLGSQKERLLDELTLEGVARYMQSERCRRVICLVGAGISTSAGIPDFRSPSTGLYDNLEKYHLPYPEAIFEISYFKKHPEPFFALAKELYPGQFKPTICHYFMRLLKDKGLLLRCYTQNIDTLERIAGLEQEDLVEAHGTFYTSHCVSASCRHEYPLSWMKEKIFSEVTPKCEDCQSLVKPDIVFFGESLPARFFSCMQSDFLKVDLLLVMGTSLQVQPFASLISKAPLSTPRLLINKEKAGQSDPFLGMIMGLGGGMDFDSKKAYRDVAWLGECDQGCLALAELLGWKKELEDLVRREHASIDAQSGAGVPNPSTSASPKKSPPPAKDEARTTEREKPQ

HCT116 cells = assay: Soft agar colony formation assay; type: cell-based, human; details: at a concentration of 10 μM and greater
[4] = Mouse body weight in xenograft study; type: in vivo, NSG mice; details: treatment groups of xenograft study, intraperitoneal
SIRT2 [5] = biological target: T2, SIRT2; assay: LC-MS detection of covalent intermediate with NAD+ in the presence of SIRT2; type: biochemical; details: incubated with an excess of SIRT2 and NAD+
HCT116 xenograft = HCT116 xenograft mice study; type: in vivo, NSG mice; details: 25 mg/kg intraperitoneal, every day

Compound | acetyl p53 (K382) levels [1] | α-tubulin acetylation ([2]; HCT116, 25 μM inhibitor) | α-tubulin acetylation ([2]; HCT116, 50 μM inhibitor) | inhibition of SIRT1 deacetylase activity (in words) (SIRT1) | SIRT2/SIRT1 Selectivity (SIRT2 [3]) | growth of HCT116 cells in soft agar (HCT116 cells) | dose dependence of acetyl p53 levels [1] | mouse body weight loss [4] | covalent inhibitor-ADP-ribose intermediate by LC-MS (SIRT2 [5]) | tumor growth by volume and weight (HCT116 xenograft)
CCCCCNC(=S)NCCCC[C@H](NC(=O)OCc1ccccc1)C(=O)Nc1cccc(O)c1 [Compound C5, Benzyl (S)-(1-((3-hydroxyphenyl)amino)-1-oxo-6-(3-pentylthioureido)hexan-2-yl)carbamate] | moderately increased the acetylation of p53; also recorded: moderately increased acetyl p53 levels | slightly increased α-tubulin acetylation | increased α-tubulin acetylation; also recorded: more robustly increased acetylation | – | – | – | – | – | – | –
CCCCCCCCCCCCNC(=S)NCCCC[C@H](NC(=O)OCc1ccccc1)C(=O)Nc1ccccc1 [AF12, Benzyl (S)-(6-(3-dodecylthioureido)-1-oxo-1-(phenylamino)hexan-2-yl)carbamate] | – | – | – | no inhibition | >1000 | – | – | – | – | –
CCCCCCCCCCNC(=S)NCCCC[C@H](NC(=O)OCc1ccccc1)C(=O)Nc1ccccc1 [AF10, Benzyl (S)-(6-(3-decylthioureido)-1-oxo-1-(phenylamino)hexan-2-yl)carbamate] | did not increase the levels of acetyl p53; also recorded: did not noticeably increase p53 acetylation | extensive α-tubulin hyperacetylation; also recorded: increased α-tubulin acetylation | extensive α-tubulin hyperacetylation; also recorded: also increased α-tubulin acetylation | no inhibition | >1000 | completely inhibited | very slight increase in acetyl p53 | No significant weight loss | – | –
CCCCCCCCCCCCCC(=S)NCCCC[C@H](NC(=O)OCc1ccccc1)C(=O)Nc1ccccc1 [TM, reference compound] | did not increase the levels of acetyl p53 | increased α-tubulin acetylation | also increased α-tubulin acetylation | – | – | – | – | – | – | –
CCCNC(=S)NCCCC[C@H](NC(=O)OCc1ccccc1)C(=O)Nc1cccc(O)c1 [Compound C3, Benzyl (S)-(1-((3-hydroxyphenyl)amino)-1-oxo-6-(3-propylthioureido)hexan-2-yl)carbamate] | did not increase the acetylation of p53 | did not increase the acetylation of α-tubulin | did not increase the acetylation of α-tubulin | – | – | – | – | – | – | –
CCCCCCCCNC(=S)NCCCC[C@H](NC(=O)OCc1ccccc1)C(=O)Nc1ccccc1 [AF8, benzyl (S)-(6-(3-octylthioureido)-1-oxo-1-(phenylamino)hexan-2-yl)carbamate] | did not increase the levels of acetyl p53; also recorded: did not noticeably increase p53 acetylation | extensive α-tubulin hyperacetylation; also recorded: increased α-tubulin acetylation | extensive α-tubulin hyperacetylation; also recorded: also increased α-tubulin acetylation | – | – | completely inhibited | did not increase acetyl p53 levels in a dose dependent manner | No significant weight loss | detected | slightly decreased tumor growth by volume and weight but did not result in a statistically significant difference
CCCCCCCCCCNC(=S)NCCCC[C@H](NC(=O)OCc1ccccc1)C(=O)Nc1cccc(O)c1 [Compound C10, Benzyl (S)-(6-(3-decylthioureido)-1-((3-hydroxyphenyl)amino)-1-oxohexan-2-yl)carbamate] | moderately increased the acetylation of p53; also recorded: moderately increased acetyl p53 levels | more strongly increased α-tubulin acetylation; also recorded: increased α-tubulin acetylation | increased α-tubulin acetylation | – | – | – | dose dependent increase in acetyl p53 levels; also recorded: dose dependent increase of acetyl p53 | – | – | –
